Molecules are shown by their SMILES.

From patent US10336732B2, “1-heterocyclyl isochromanyl compounds and analogs for treating CNS disorders” (Sunovion Pharmaceuticals Inc., priority 2015, dated 2019) come the findings set out here.

The assay relates to mice. Kind of assay: Neuropharmacological assay (SmartCube), behavioral signature of compound-treated mice. In kind it is in vivo. To be noted: i.p. 15 min before behavioral test, most efficacious dose(s) of 3 doses. Put shortly:
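Mice received compound i.p. in NMP/PEG/propylene glycol vehicle at 3 doses, 15 min before testing. Video-captured behavior was algorithmically compared with a reference-drug signature database.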
As for `c1ccc2c(c1)CCCO[C@@H]2[C@@H]1CCCN1` [Compound I-97, (S)-2-((S)-1,3,4,5-tetrahydrobenzo[c]oxepin-1-yl)pyrrolidine], the “AD: ADHD (probability that behavioral signature matches class)” value (shortened to “AD: ADHD”) is “+ (LOQ ≤ + <5%)”, the “AG: analgesic (probability that behavioral signature matches class)” value (“AG: analgesic” below) is “+++ (25% ≤ +++ <50%)”, the “AX: anxiolytic (probability that behavioral signature matches class)” value (shortened to “AX: anxiolytic”) is “++ (5% ≤ ++ <25%)” and the “CE: cognitive enhancer (probability that behavioral signature matches class)” value (from here on “CE: cognitive enhancer”) is given as “++ (5% ≤ ++ <25%)”. For the same compound, the “DP: anti-depressant (probability that behavioral signature matches class)” value (“DP: anti-depressant” for short) was “++ (5% ≤ ++ <25%)”, the “HA: hallucinogen (probability that behavioral signature matches class)” value (from here on “HA: hallucinogen”) is “+ (LOQ ≤ + <5%)”, the “MS: mood stabilizer (probability that behavioral signature matches class)” value (shortened to “MS: mood stabilizer”) is given as “++ (5% ≤ ++ <25%)” and the “PS: anti-psychotic (probability that behavioral signature matches class)” value (shortened to “PS: anti-psychotic”) is reported as “+++ (25% ≤ +++ <50%)”. Besides, the “SD: sedative hypnotic (probability that behavioral signature matches class)” value (from here on “SD: sedative hypnotic”) is reported as “++ (5% ≤ ++ <25%)”, the “UN: uncharacterized CNS activity (probability that behavioral signature matches class)” value (“UN: uncharacterized CNS activity” below) is “+ (LOQ ≤ + <5%)” and the “XG: anxiogenic (probability that behavioral signature matches class)” value (from here on “XG: anxiogenic”) is given as “+ (LOQ ≤ + <5%)”.

Turning to `c1ccc2c(c1)CCCO[C@H]2[C@@H]1CCCN1` [Compound I-98, (S)-2-((R)-1,3,4,5-tetrahydrobenzo[c]oxepin-1-yl)pyrrolidine], the “AD: ADHD” value was “+ (LOQ ≤ + <5%)”, the “AG: analgesic” value is reported as “+ (LOQ ≤ + <5%)”, the “AX: anxiolytic” value is “++ (5% ≤ ++ <25%)” and the “CE: cognitive enhancer” value is reported as “+ (LOQ ≤ + <5%)”. Also, the “DP: anti-depressant” value is given as “+++ (25% ≤ +++ <50%)”, the “HA: hallucinogen” value is “+ (LOQ ≤ + <5%)”, the “MS: mood stabilizer” value is reported as “++ (5% ≤ ++ <25%)” and the “PS: anti-psychotic” value is on record as “+++ (25% ≤ +++ <50%)”. Further, the “SD: sedative hypnotic” value was “++ (5% ≤ ++ <25%)”, the “UN: uncharacterized CNS activity” value is given as “+ (LOQ ≤ + <5%)” and the “XG: anxiogenic” value is recorded as “+ (LOQ ≤ + <5%)”.

Take `c1ccc2c(c1)CCCO[C@@H]2[C@H]1CCCN1` [Compound I-99, (R)-2-((S)-1,3,4,5-tetrahydrobenzo[c]oxepin-1-yl)pyrrolidine]: the “AD: ADHD” value is on record as “+ (LOQ ≤ + <5%)”, the “AG: analgesic” value is on record as “++ (5% ≤ ++ <25%)”, the “AX: anxiolytic” value was “++ (5% ≤ ++ <25%)” and the “CE: cognitive enhancer” value is given as “++ (5% ≤ ++ <25%)”. Further, the “DP: anti-depressant” value is on record as “+++ (25% ≤ +++ <50%)”, the “HA: hallucinogen” value is “+ (LOQ ≤ + <5%)”, the “MS: mood stabilizer” value is recorded as “+ (LOQ ≤ + <5%)” and the “PS: anti-psychotic” value is given as “++ (5% ≤ ++ <25%)”. The “SD: sedative hypnotic” value is listed as “++ (5% ≤ ++ <25%)”, the “UN: uncharacterized CNS activity” value is given as “+ (LOQ ≤ + <5%)” and the “XG: anxiogenic” value is given as “+ (LOQ ≤ + <5%)”.

With `c1ccc2c(c1)CCCO[C@H]2[C@H]1CCCN1` [Compound I-100, (R)-2-((R)-1,3,4,5-tetrahydrobenzo[c]oxepin-1-yl)pyrrolidine], the “AD: ADHD” value was “+ (LOQ ≤ + <5%)”, the “AG: analgesic” value is “++ (5% ≤ ++ <25%)”, the “AX: anxiolytic” value is “++ (5% ≤ ++ <25%)” and the “CE: cognitive enhancer” value was “+++ (25% ≤ +++ <50%)”. Also, the “DP: anti-depressant” value is recorded as “++ (5% ≤ ++ <25%)”, the “HA: hallucinogen” value is recorded as “+ (LOQ ≤ + <5%)”, the “MS: mood stabilizer” value is “++ (5% ≤ ++ <25%)” and the “PS: anti-psychotic” value is listed as “+++ (25% ≤ +++ <50%)”. Moreover, the “SD: sedative hypnotic” value is listed as “++ (5% ≤ ++ <25%)”, the “UN: uncharacterized CNS activity” value was “+ (LOQ ≤ + <5%)” and the “XG: anxiogenic” value is reported as “+ (LOQ ≤ + <5%)”.

Consider `Cc1cccc2c1[C@@H]([C@@H]1CCCN1)OCCC2` [Compound I-101, (S)-2-((S)-9-methyl-1,3,4,5-tetrahydrobenzo[c]oxepin-1-yl)pyrrolidine], for which the “AD: ADHD” value is “+ (LOQ ≤ + <5%)”, the “AG: analgesic” value is listed as “+ (LOQ ≤ + <5%)”, the “AX: anxiolytic” value was “++ (5% ≤ ++ <25%)” and the “CE: cognitive enhancer” value is “+ (LOQ ≤ + <5%)”. The “DP: anti-depressant” value was “++ (5% ≤ ++ <25%)”, the “HA: hallucinogen” value was “+ (LOQ ≤ + <5%)”, the “MS: mood stabilizer” value is “+ (LOQ ≤ + <5%)” and the “PS: anti-psychotic” value is on record as “+ (LOQ ≤ + <5%)”. Besides, the “SD: sedative hypnotic” value is on record as “+ (LOQ ≤ + <5%)”, the “UN: uncharacterized CNS activity” value is “+ (LOQ ≤ + <5%)” and the “XG: anxiogenic” value is “+ (LOQ ≤ + <5%)”.

As for `Cc1cccc2c1[C@H]([C@@H]1CCCN1)OCCC2` [Compound I-102, (S)-2-((R)-9-methyl-1,3,4,5-tetrahydrobenzo[c]oxepin-1-yl)pyrrolidine], the “AD: ADHD” value is on record as “+ (LOQ ≤ + <5%)”, the “AG: analgesic” value is given as “++ (5% ≤ ++ <25%)”, the “AX: anxiolytic” value is on record as “+++ (25% ≤ +++ <50%)” and the “CE: cognitive enhancer” value is “++ (5% ≤ ++ <25%)”. Moreover, the “DP: anti-depressant” value is “++ (5% ≤ ++ <25%)”, the “HA: hallucinogen” value is recorded as “+ (LOQ ≤ + <5%)”, the “MS: mood stabilizer” value is “++ (5% ≤ ++ <25%)” and the “PS: anti-psychotic” value is recorded as “++ (5% ≤ ++ <25%)”. Besides, the “SD: sedative hypnotic” value is “+ (LOQ ≤ + <5%)”, the “UN: uncharacterized CNS activity” value was “+ (LOQ ≤ + <5%)” and the “XG: anxiogenic” value is listed as “+ (LOQ ≤ + <5%)”.

Regarding `Cc1cccc2c1[C@H]([C@H]1CCCN1)OCCC2` [Compound I-103, (R)-2-((R)-9-methyl-1,3,4,5-tetrahydrobenzo[c]oxepin-1-yl)pyrrolidine], the “AD: ADHD” value is given as “+ (LOQ ≤ + <5%)”, the “AG: analgesic” value is recorded as “++ (5% ≤ ++ <25%)”, the “AX: anxiolytic” value was “++ (5% ≤ ++ <25%)” and the “CE: cognitive enhancer” value is reported as “+ (LOQ ≤ + <5%)”. Further, the “DP: anti-depressant” value is recorded as “++ (5% ≤ ++ <25%)”, the “HA: hallucinogen” value is recorded as “+ (LOQ ≤ + <5%)”, the “MS: mood stabilizer” value is “+ (LOQ ≤ + <5%)” and the “PS: anti-psychotic” value is on record as “+ (LOQ ≤ + <5%)”. In addition, the “SD: sedative hypnotic” value is on record as “++ (5% ≤ ++ <25%)”, the “UN: uncharacterized CNS activity” value is reported as “+++ (25% ≤ +++ <50%)” and the “XG: anxiogenic” value was “+ (LOQ ≤ + <5%)”.

Regarding `Cc1cccc2c1[C@@H]([C@H]1CCCN1)OCCC2` [Compound I-104, (R)-2-((S)-9-methyl-1,3,4,5-tetrahydrobenzo[c]oxepin-1-yl)pyrrolidine], the “AD: ADHD” value was “+ (LOQ ≤ + <5%)”, the “AG: analgesic” value was “+++ (25% ≤ +++ <50%)”, the “AX: anxiolytic” value is listed as “++ (5% ≤ ++ <25%)” and the “CE: cognitive enhancer” value is reported as “+ (LOQ ≤ + <5%)”. The “DP: anti-depressant” value is recorded as “++ (5% ≤ ++ <25%)”, the “HA: hallucinogen” value is given as “+ (LOQ ≤ + <5%)”, the “MS: mood stabilizer” value is “+ (LOQ ≤ + <5%)” and the “PS: anti-psychotic” value was “+ (LOQ ≤ + <5%)”. For the same compound, the “SD: sedative hypnotic” value is on record as “++ (5% ≤ ++ <25%)”, the “UN: uncharacterized CNS activity” value was “++ (5% ≤ ++ <25%)” and the “XG: anxiogenic” value is on record as “+ (LOQ ≤ + <5%)”.

With `Fc1cccc2c1[C@H]([C@@H]1CCCN1)OCCC2` [Compound I-105, (S)-2-((R)-9-fluoro-1,3,4,5-tetrahydrobenzo[c]oxepin-1-yl)pyrrolidine], the “AD: ADHD” value is listed as “+ (LOQ ≤ + <5%)”, the “AG: analgesic” value is “++ (5% ≤ ++ <25%)”, the “AX: anxiolytic” value is given as “+++ (25% ≤ +++ <50%)” and the “CE: cognitive enhancer” value is “++ (5% ≤ ++ <25%)”. The “DP: anti-depressant” value was “++ (5% ≤ ++ <25%)”, the “HA: hallucinogen” value is recorded as “+ (LOQ ≤ + <5%)”, the “MS: mood stabilizer” value was “+ (LOQ ≤ + <5%)” and the “PS: anti-psychotic” value is listed as “++ (5% ≤ ++ <25%)”. In addition, the “SD: sedative hypnotic” value is “++ (5% ≤ ++ <25%)”, the “UN: uncharacterized CNS activity” value is listed as “++++ (50% ≤ ++++)” and the “XG: anxiogenic” value is “+ (LOQ ≤ + <5%)”.
